From US9944721B2, “Polysialic acid and use for treatment of neurodegenerative and neuroinflammatory diseases” (RHEINISCHE FRIEDRICH-WILHELMS UNIVERSITÄT BONN, priority 2013, dated 2018)

Columns and labels:
[1] = test system: co-culture of human iPSdM1 microglia and iPS cell-derived neurons with amyloid-β1-42; experiment: Microglia-neuron co-culture with fibrillary amyloid-β1-42, 48 hours (neurite length); format: cell-based; details: 48 hours co-culture with microglia and 1 μM fibrillary amyloid-β1-42; without PSA-20 0.64+/−0.03; FIG. 4G
Method: Human induced pluripotent stem cell derived microglia (iPSdM) were obtained from iPS cells. iPSdM-1 line was used in this study generated from the iLB-C-35m-r1 clone (Bonn). iPSdM-1 (here named microglia or microglial cells) were culture in N2-medium consisting of DMEM/F12 culture medium (Gibco) supplemented with 1% N2 (Invitrogen), 0.48 mM L-glutamine (Gibco) and 100 μg/ml penicillin/streptomycin (Gibco). Cells were cultured with high density and split 1:5. After splitting, cells recovered and attached again to the new dishes.
Human induced pluripotent stem (iPS) cells (Foreskin-1, WiCell) were used for generation of primitive neural stem cell (pNSC) and their differentiation into neurons according to a modified protocol, which was used to obtain primitive neural precursors from human embryonic stem cells. Briefly, iPS cells were cultured on feeder cells to form small colonies. […]
Cells were fixed for 15 minutes with 4% paraformaldehyde (PFA), blocked and permeabilized for 60 minutes with a solution that contained bovine serum albumin (10% BSA) and normal goat serum (5% nGS) and 0.1% TritonX-100. […] Ten images were randomly collected from each experimental setup by confocal laser scanning microscopy (Fluoview 1000, Olympus) and total lengths of neuronal branches from β-tubulin-III stained neurites was determined done by the NIH ImageJ/NeuronJ software.

[2] = Biotinylated PSA-20 in serum and brain after intraperitoneal application (ELISA); format: in vivo, mice
Method: First, PSA-20 was conjugated with biotin and a sensitive ELISA to detect biotinylated PSA-20 was established. The PSA-20 was coupled with a biotin molecule at the sixth carbon atom of sialic acid at the terminus of the PSA-20 chains. Therefore, the terminus of PSA-20 was oxidized to an aldehyde by sodium metaperiodate. Afterwards, hydrazide coupled biotin was conjugated at room temperature to the aldehyde group to form a hydrazone bond. Purification was carried out with a desalting column (HiTrap Desalting Column GE Healthcare).
Biotin-conjugated PSA-20 (10 μg per g body weight) was applied in adult mice by intraperitoneal application. An ELISA method was used to detect biotinylated PSA-20 in the serum and brain. For the ELISA, NeutrAvidin coated pre-blocked plates (Thermo Scientific) were washed three times with PBST (PBS+0.05% Tween-20). After washing, plasma and brain homogenate as well as defined concentrations of biotinylated PSA-20 as standard were applied for 1 h at room temperature. Plates were washed three times and were incubated with a monoclonal antibody directed against oligosialic acids (rat-anti-mouse CD56, BD Pharmingen #556325) over night at 4° C. The following day the plate were washed three times and incubated with goat anti-mouse immunoglobulin conjugated with peroxidase-HRP (Jackson ImmunoResearch). Then, plates were washed and incubated with 100 μl TMB-reagent for 30 min at room temperature. The reaction was stopped by addition of 100 μl 1N HCl and the signal was detected with an ELISA reader.
Serum and brain tissue of one mouse was analyzed before application and at 0.5, 1, 2, 4 and 8 hours after application. The highest PSA-20 level was detected in the serum at 0.5 hours and in the brain at 2 hours. The half-time of PSA-20 in the serum and in the brain was estimated to be between 2 and 3 hours. The bioavailability of PSA-20 in the brain in relation to the serum was estimated to be between 1 and 3%. […] As can be taken from the FIG. 10C, PSA-20 was detected in the serum and the brain. […]

[3] = biotin-conjugated PSA-20, 10 μg per g body weight i.p., adult mice

passage of the blood-brain barrier ([2]; after systemic application): passed the blood-brain barrier
time of peak concentration in the brain [2, 3]: 2 h
time of peak concentration in the serum [2, 3]: 0.5 h
Substance: poly-(α(2→8)Neu5Ac)n [PSA-20]
relative neurite length [1]: 0.82+/−0.03
